Measured values from ChEMBL document CHEMBL1201862, “PubChem BioAssay data set” (2004).
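Tested at 5 concentrations; 48 h exposure; 96-well plates; endpoints linearly interpolated, else capped at highest concentration. GI50 is the concentration that inhibits growth by half.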 Activity calls are given as the source filed them. Rule as the data show it: active = GI50 up to about 1.1 µM and inactive = higher. Non-standard residues stand in square brackets, D forms with d. Residues, ends and D or L forms follow the SMILES beside them. ξ: configuration not given here. *: point of attachment. NMeF = CN[C@@H](Cc1ccccc1)C(=O)O; NMeN = CN[C@@H](CC(N)=O)C(=O)O; NMeV = CN[C@H](C(=O)O)C(C)C; ξNMeV = CNC(C(=O)O)C(C)C; Boc = CC(C)(C)OC(=O)*; ξNMeA = CNC(C)C(=O)O; ξV = CC(C)C(N)C(=O)O

Legend:
Test in all cases: NCI-60 cell line screen, 48 h
SN12C = tested on: SN12C
HCT-15 = tested on: HCT-15
UACC-62 = tested on: UACC-62
SF-295 = tested on: SF-295
SNB-75 = tested on: SNB-75
DLD-1 = tested on: DLD-1
HT-29 = tested on: HT-29
LOX IMVI = tested on: LOX IMVI
K562 = tested on: K562
NCI-H226 = tested on: NCI-H226
RXF 393 = tested on: RXF 393
HL-60 = tested on: HL-60
786-0 = tested on: 786-0
CAKI-1 = tested on: CAKI-1
OVCAR-4 = tested on: OVCAR-4
MDA-N = tested on: MDA-N
BT-549 = tested on: BT-549
MDA-MB-231 = tested on: MDA-MB-231
MCF7 = tested on: MCF7
MDA-MB-435 = tested on: MDA-MB-435

Measured: GI50

N#CC1=C(Cl)NC(Cl)=C(C#N)C1c1c(Cl)cccc1Cl
inactive: SN12C 24.7 µM | UACC-62 30.2 µM | SF-295 41.7 µM | SNB-75 34.4 µM | DLD-1 21.4 µM | HT-29 31.4 µM | LOX IMVI 17.3 µM | K562 19 µM | NCI-H226 > 100 µM | RXF 393 22.6 µM | HL-60 19.6 µM | 786-0 25.1 µM | CAKI-1 55.6 µM
16.2 µM: HCT-15

CCOc1ccc(/N=C/c2ccc3ccccc3n2)cc1
inactive: SN12C > 100 µM | UACC-62 > 100 µM | SF-295 > 100 µM | SNB-75 > 35.3 µM | DLD-1 > 100 µM | HT-29 > 100 µM | LOX IMVI > 73.5 µM | K562 49.8 µM | OVCAR-4 > 100 µM | NCI-H226 > 100 µM | RXF 393 > 100 µM | HL-60 > 47.1 µM | 786-0 > 100 µM | CAKI-1 > 100 µM
> 100 µM: HCT-15

CC1(C)CC23C(=O)N(c4ccccc4)C(Nc4ccccc4)=NC2=CC(C#N)=C(C#N)C3O1 (stereo not drawn)
64.9 µM: HCT-15
inactive: SN12C 34.8 µM | UACC-62 96.4 µM | SF-295 46.7 µM | SNB-75 48.8 µM | DLD-1 56.2 µM | HT-29 26.9 µM | LOX IMVI 64.4 µM | K562 72.4 µM | OVCAR-4 22.6 µM | NCI-H226 26.4 µM | RXF 393 15.2 µM | HL-60 27.4 µM | 786-0 > 100 µM | CAKI-1 23.2 µM

COC(=O)C(C)N(C)C(=O)[C@H](CC(N)=O)N(C)C(=O)[C@@H]1CCCN1C(=O)[C@H](C(C)C)N(C)C(=O)C(C(C)C)N(C)C(=O)[C@H](Cc1ccccc1)N(C)C(=O)C(NC(=O)OC(C)(C)C)C(C)C (stereo partly drawn) (Boc-[ξV][NMeF][ξNMeV][NMeV]P[NMeN][ξNMeA]-OMe)
22 µM: HCT-15
inactive: SN12C 26 µM | UACC-62 10.2 µM | SF-295 12 µM | MDA-N 22.6 µM | BT-549 12.1 µM | SNB-75 6.17 µM | DLD-1 17.8 µM | HT-29 18.3 µM | MDA-MB-231 16.3 µM | LOX IMVI 9.44 µM | K562 16.9 µM | OVCAR-4 > 50 µM | NCI-H226 12.1 µM | RXF 393 12 µM | HL-60 15.6 µM | 786-0 17.6 µM | MCF7 14.2 µM | CAKI-1 > 50 µM | MDA-MB-435 23.2 µM

Cc1c(NC(=S)NC(=O)c2ccc([N+](=O)[O-])cc2)c(=O)n(-c2ccccc2)n1C
> 100 µM: HCT-15
inactive: SN12C > 100 µM | UACC-62 > 100 µM | SF-295 > 100 µM | SNB-75 > 100 µM | DLD-1 > 100 µM | HT-29 > 100 µM | LOX IMVI > 100 µM | K562 > 100 µM | OVCAR-4 > 100 µM | NCI-H226 > 100 µM | RXF 393 > 100 µM | HL-60 > 100 µM | 786-0 > 100 µM | CAKI-1 > 100 µM

BrC1=CC=C2NCCCCCC/N=C3\C=CC(Br)=CC=C3NCCCCCC/N=C\2C=C1
inactive: SN12C > 25.5 µM | UACC-62 > 25.5 µM | SF-295 > 25.5 µM | SNB-75 > 25.5 µM | DLD-1 > 25.5 µM | HT-29 > 25.5 µM | LOX IMVI > 25.5 µM | K562 > 25.5 µM | OVCAR-4 > 25.5 µM | NCI-H226 > 25.5 µM | RXF 393 > 25.5 µM | HL-60 > 25.5 µM | 786-0 > 25.5 µM | CAKI-1 > 25.5 µM
> 25.5 µM: HCT-15

O=S(O)CCCCSSCCCCSSCCCCS(=O)O
42.7 µM: HCT-15
inactive: SN12C 42.7 µM | UACC-62 12.1 µM | SF-295 30.1 µM | SNB-75 6.31 µM | DLD-1 86.1 µM | HT-29 > 10 µM | LOX IMVI 12.8 µM | K562 15 µM | OVCAR-4 16 µM | RXF 393 27.2 µM | HL-60 3.25 µM | 786-0 > 100 µM | CAKI-1 95.3 µM

COC1OC(CO)C(O)C(OC(C)=O)C1NC(=O)N(CCCl)N=O (stereo not drawn)
inactive: SN12C > 100 µM | UACC-62 24.8 µM | SF-295 42.7 µM | SNB-75 46 µM | DLD-1 > 100 µM | HT-29 > 100 µM | LOX IMVI 55 µM | K562 > 100 µM | OVCAR-4 > 100 µM | NCI-H226 > 100 µM | RXF 393 > 100 µM | HL-60 3.52 µM | 786-0 81.7 µM | CAKI-1 > 100 µM

CCN1CC2(C)CC[C@@H](OC)C34[C@@H]2[C@H](OC(C)=O)C2(OCO[C@@]25C[C@H](OC)C2C[C@]3(O)[C@@H]5[C@H]2O)[C@H]14
inactive: SN12C > 100 µM | SF-295 > 100 µM | SNB-75 > 100 µM | DLD-1 > 100 µM | HT-29 > 100 µM | LOX IMVI > 100 µM | OVCAR-4 > 100 µM | NCI-H226 > 100 µM | RXF 393 15.8 µM | HL-60 > 100 µM | 786-0 34.2 µM | CAKI-1 > 100 µM

CCc1cccc(CC)c1NC(=O)C1=C(C)NC(C)=C(C(=O)Nc2c(CC)cccc2CC)C1c1ccc([N+](=O)[O-])cc1
inactive: SN12C 46.5 µM | SF-295 15.5 µM | SNB-75 24.5 µM | DLD-1 21.4 µM | HT-29 17.1 µM | LOX IMVI 30.9 µM | K562 19.1 µM | OVCAR-4 12.3 µM | NCI-H226 26.1 µM | RXF 393 17.1 µM | HL-60 16.4 µM | 786-0 13.9 µM | CAKI-1 15.8 µM

CCCCOC(=O)C1C2CCC(O2)C1C(=O)OCCCC (stereo not drawn)
inactive: SN12C > 73.3 µM | UACC-62 > 100 µM | SF-295 > 100 µM | SNB-75 > 100 µM | DLD-1 > 53.7 µM | HT-29 > 45.7 µM | LOX IMVI > 44.8 µM | K562 > 100 µM | OVCAR-4 > 87.1 µM | NCI-H226 > 100 µM | RXF 393 > 61.9 µM | HL-60 > 100 µM | 786-0 > 44.8 µM | CAKI-1 > 100 µM
> 65.2 µM: HCT-15

Cc1cc(NC(=O)NC(=O)c2ccccc2[N+](=O)[O-])ccc1Oc1ncc(Cl)cn1
active: SN12C 0.492 µM | UACC-62 0.0551 µM | SF-295 0.0598 µM | MDA-N < 0.01 µM | SNB-75 0.0456 µM | DLD-1 0.0783 µM | HT-29 0.0488 µM | MDA-MB-231 0.664 µM | LOX IMVI 0.133 µM | K562 0.037 µM | NCI-H226 0.232 µM | RXF 393 0.0447 µM | HL-60 0.0327 µM | 786-0 0.0671 µM | MCF7 0.037 µM | MDA-MB-435 0.0115 µM
inactive: BT-549 29.4 µM | OVCAR-4 14.1 µM
0.113 µM: HCT-15

CC(=O)Nc1ccc(/C=N\N2C(=O)c3ccccc3C2=O)cc1
> 100 µM: HCT-15
inactive: SN12C > 100 µM | UACC-62 > 100 µM | SF-295 > 100 µM | SNB-75 > 100 µM | DLD-1 > 100 µM | HT-29 > 100 µM | LOX IMVI > 100 µM | K562 > 100 µM | OVCAR-4 > 100 µM | NCI-H226 > 100 µM | RXF 393 > 100 µM | HL-60 > 100 µM | 786-0 > 100 µM | CAKI-1 > 100 µM

Cc1nnc2n1N=C(c1ccccc1)C(c1ccccc1)S2 (stereo not drawn)
inactive: SN12C 59.6 µM | UACC-62 39.5 µM | SF-295 62.4 µM | SNB-75 17.8 µM | DLD-1 55.3 µM | HT-29 34.8 µM | LOX IMVI 45.2 µM | K562 31.8 µM | OVCAR-4 57.9 µM | RXF 393 36.1 µM | HL-60 24.5 µM | 786-0 27 µM | CAKI-1 64.9 µM
26.2 µM: HCT-15

COc1ccccc1-n1c(NN)nc2ccc(Br)cc2c1=O
35.6 µM: HCT-15
inactive: SN12C 57.9 µM | UACC-62 36.6 µM | SF-295 34.5 µM | SNB-75 34.1 µM | DLD-1 34.8 µM | HT-29 38.2 µM | LOX IMVI 27.9 µM | K562 35.6 µM | OVCAR-4 > 100 µM | NCI-H226 31 µM | RXF 393 30.4 µM | HL-60 21.3 µM | 786-0 36.9 µM | CAKI-1 48.1 µM

C[C@]12CCc3nonc3C1CC[C@@H]1C2CC[C@]2(C)C(=O)/C(=N\O)CC12 (stereo partly drawn)
active: HL-60 1.03 µM
> 100 µM: HCT-15
inactive: SN12C > 100 µM | UACC-62 > 100 µM | SF-295 > 100 µM | SNB-75 28.1 µM | DLD-1 > 100 µM | HT-29 > 100 µM | LOX IMVI 46 µM | K562 > 100 µM | OVCAR-4 48.2 µM | NCI-H226 > 100 µM | RXF 393 3.87 µM | 786-0 > 100 µM | CAKI-1 > 100 µM

N/C=N/S(=O)(=O)c1ccc(NC(=O)COC(=O)c2cccc3c(=O)c4ccccc4[nH]c23)cc1
> 100 µM: HCT-15
inactive: SN12C > 100 µM | UACC-62 > 100 µM | SF-295 > 100 µM | SNB-75 > 100 µM | DLD-1 > 100 µM | HT-29 > 100 µM | LOX IMVI > 100 µM | K562 > 100 µM | NCI-H226 > 100 µM | RXF 393 > 100 µM | HL-60 > 100 µM | 786-0 > 100 µM

O=S(=O)(Sc1ccc(Cl)cc1)c1ccc(Cl)cc1
inactive: SN12C 12.4 µM | UACC-62 16.6 µM | SF-295 12.2 µM | SNB-75 17.7 µM | DLD-1 16.7 µM | HT-29 18.2 µM | LOX IMVI 11.6 µM | K562 19.9 µM | OVCAR-4 20.6 µM | NCI-H226 16.7 µM | RXF 393 15.7 µM | HL-60 13.6 µM | 786-0 16 µM | CAKI-1 19.1 µM
17.7 µM: HCT-15
